Data published in US20230364079A1, “COMPOUND AS BRAIN-PERMEABLE BTK OR HER2 INHIBITOR, PREPARATION METHOD THEREFOR, AND USE THEREOF” (CHENGDU HYPERWAY PHARMACEUTICALS CO., LTD., priority 2020, published 2023).
Read-outs that look alike come from different tables or passages of the source.

How the values were obtained:
BTK wild-type kinase = BTK wild-type kinase (Homo sapiens (Human), UniProt Q06187); assay: BTK kinase activity inhibition test in vitro (Caliper EZ Reader); format: biochemical
Outline: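 Compound (10 mM DMSO stock) preincubated with kinase 10 min at room temperature, then ATP plus kinase substrate 2 added, 10 min reaction at room temperature before stop. Substrate conversion read by Caliper mobility shift; inhibition normalised to no-enzyme and no-compound controls, IC50 by variable-slope log(inhibitor) fit.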

[1] = biological target: BTK mutation-type C481S kinase (Homo sapiens (Human), UniProt Q06187, C481S); assay: BTK-C481S kinase activity inhibition test in vitro (Caliper EZ Reader); format: biochemical
Chain of BTK mutation-type C481S kinase (Q06187 whole entry C481S): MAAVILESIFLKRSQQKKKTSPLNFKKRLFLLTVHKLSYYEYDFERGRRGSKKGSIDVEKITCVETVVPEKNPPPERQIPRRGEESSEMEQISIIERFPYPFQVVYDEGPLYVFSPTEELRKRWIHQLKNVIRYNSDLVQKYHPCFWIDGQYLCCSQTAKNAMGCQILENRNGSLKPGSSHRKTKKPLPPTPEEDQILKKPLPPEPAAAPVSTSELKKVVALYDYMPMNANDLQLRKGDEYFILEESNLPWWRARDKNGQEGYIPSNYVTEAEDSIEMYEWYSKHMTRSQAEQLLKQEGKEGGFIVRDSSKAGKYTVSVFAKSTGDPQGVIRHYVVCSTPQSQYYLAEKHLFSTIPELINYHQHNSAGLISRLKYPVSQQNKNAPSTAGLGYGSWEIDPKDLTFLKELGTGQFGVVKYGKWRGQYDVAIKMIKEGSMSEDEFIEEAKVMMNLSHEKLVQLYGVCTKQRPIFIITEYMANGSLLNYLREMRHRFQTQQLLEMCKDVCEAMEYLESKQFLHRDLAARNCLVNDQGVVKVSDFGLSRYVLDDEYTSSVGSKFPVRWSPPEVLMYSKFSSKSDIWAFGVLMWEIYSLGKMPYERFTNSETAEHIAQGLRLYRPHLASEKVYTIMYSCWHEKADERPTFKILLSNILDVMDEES
Description: In the tests on the activity of inhibiting BTK and HER2 kinase in vitro in the examples of the present disclosure, powder of the compound was dissolved in 100% DMSO to prepare a 10 mM stock solution and stored at-20° C. in the dark. […] In addition, the compounds were subjected to experiments such as liver microsome metabolic stability, rat PK, rat brain penetration rate, and drug efficacy model in the examples of the present disclosure.
Compound powders were dissolved in 100% DMSO to make 10 mM stock solutions, which were stored at -20° C. in the dark.
2: Kinase Reaction Process
(1) Preparation of 1 × Kinase buffer.
(5) After centrifugation at 1000 rpm for 30 seconds, the reaction plate was shaken to mix well and incubated at room temperature for 10 min.
(6) A 5/3-fold final concentration of a mixed solution of ATP and Kinase substrate 2 was prepared with 1 × Kinase buffer.
(7) 15 µL of the mixed solution of ATP and substrate with 5/3-fold final concentration was added to start the reaction.
(8) The 384-well plate was centrifuged at 1000 rpm for 30 seconds, shaken to mix well, and incubated at room temperature for 10 min.
(9) 30 µL of a stop solution was added to stop the kinase reaction, and after centrifugation at 1000 rpm for 30 seconds, the plate was shaken to mix well;
(10) The conversion rate was read with Caliper EZ Reader.
where Conversion%_sample indicates the conversion rate reading of the sample; Conversion%_min is the average reading of the negative control wells, representing the conversion rate reading of the wells without enzyme activity; Conversion%_max is the average reading of the ratio of the positive control wells, representing the conversion rate reading of the wells without compound inhibition.
Dose-Response Curve Fitting
With the log value of the concentration as the X-axis, and the percentage inhibition rate as the Y-axis, the dose-effect curve was fitted using the log(inhibitor) vs. response-Variable slope of the analysis software GraphPad Prism 5, so as to determine the IC50 value of each compound on the enzyme activity.
The calculation formula was: […]

[2] = Liver microsome metabolic stability test, human; format: in vitro ADME; details: for half-life: liver microsomes, read-out: T½
Description: (§1) 1: To the sample wells of T0, T5, T10, T20, T30, T60 and NCF60, 10 µL of the test or reference working solution and 80 µL of microsome working solution (hepatic microsome with a protein concentration of 0.5 mg/mL) were added, and to Blank60 well, only the microsome working solution was added. Then samples of the Blank60, T5, T10, T20, T30 and T60 other than T0 and NCF60 were placed in a 37° C. water bath and pre-incubated for about 10 min.
(§2) 2: To the T0 sample well, 300 µL of stop solution (containing 200 ng/mL tolbutamide and 200 ng/mL labetalol in acetonitrile solution) was added first, followed by 10 µL of NADPH regeneration system working solution.
(§3) 3: After the pre-incubation of Blank60, T5, T10, T20, T30 and T60 incubation plates, 10 µL of NADPH regeneration system working solution was added to each sample well to start the reaction, and 10 µL of 100 mM potassium phosphate buffer was added to the NCF60 sample well.
(§4) 4: After incubation for an appropriate time (such as 5, 10, 20, 30 and 60 min), to each test sample well and control well of the Blank60, T5, T10, T20, T30, T60 and NCF60 plates, 300 µL of stop solution was added to terminate the reaction.
(§5) 5: All sample plates were shaken to mix well and centrifuged at 4000 rpm for 20 min, and 100 µL of the supernatant of the test sample or control sample was taken and diluted with 300 µL of pure water for LC-MS/MS analysis.
(§6) 6: Data analysis: T½ and CLint(mic) (µL/min/mg) values were calculated according to the first-order elimination kinetics. The first-order elimination kinetics equation was: […]

[3] = Pharmacokinetic test, oral, SD rats; format: in vivo; details: oral 10 mg/kg, plasma; for half-life: read-out: T½ (converted)
Outline: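 Male/female status unstated; SD rats (3 per group) dosed orally at 10 mg/kg after overnight fast, refed 4 h post-dose. Plasma from serial blood draws stored at -20° C, protein-precipitated with internal standard solution and quantified by LC-MS/MS.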

[4] = Liver microsome metabolic stability test, rat; format: in vitro ADME; details: for half-life: liver microsomes, read-out: T½
Description: as §1, §2, §3, §4, §5, §6

TMD8 cell proliferation = assay: In vitro cell proliferation inhibitory activity test (CTG), TMD8; format: cell-based, human; details: TMD8 cells, 72 h
Description: Test Example 4: In Vitro Cell Proliferation Inhibitory Activity Test
Cells were cultured in 1640 medium, added with 10% inactivated FBS and 1% double antibiotics, and cultured at 37° C. and 5% CO2.
(1) Cells were routinely cultured until the cell density was 80%-90%, and the cells were harvested when their number reached the requirement.
(2) Cells were resuspended with corresponding culture medium, counted, and prepared into cell suspension at appropriate density.
(3) The cell suspension was added to a 96-well plate, 100 µL per well.
(4) Cells were cultured overnight in a 37° C., 5% CO2 incubator.
(1) The compounds to be tested were diluted with DMSO to make a stock solution with a final concentration of 20 mM for later use.
(2) The stock solution was diluted 10 times from 20 mM to 2 mM with DMSO, and then diluted 3 times from 2 mM to 9 concentrations.
(3) The blank control wells were cells plus 0.5% DMSO, as high-reading control wells.
(4) Wells with no cells and only medium were used as low-reading control wells.
4: Cell Treatment With Compound
(1) 24 h after the cells were plated, the compounds acted alone, and 99 µL of growth medium was added to each well, followed by 1 µL of the compound prepared in step 3. The plate was shaken gently to mix uniformly, and then placed in a 37° C., 5% CO2 incubator.
(2) The cell plate was placed in an incubator for 72 h.
5: Detection by CTG Method
(1) The cell plate to be tested was placed at room temperature for 30 min, and 100 µL of medium was discarded from each well.
(2) 100 µL of CTG reagent (CelltiterGlo kit) was added to each well, placed on a fast shaker for 2 min, and stood at room temperature in the dark for 30 min.
(3) The chemiluminescent signal value was read with the Envision instrument.
IC50 was calculated by using GraphPad Prism 8 software. The IC50 (half inhibitory concentration) of the compound was derived using the following nonlinear fitting formula, and the results are shown in the following table: […]

[5] = system: TMD8 mouse subcutaneous xenograft tumor; assay: TMD8 pharmacodynamic model test (mouse subcutaneous xenograft tumor); format: in vivo; details: for inhibitory effect against the tumor compared with ARQ-531 and ibrutinib: same dose of 10 mg/kg, FIG. 1; for inhibitory effect against the tumor compared with Tirabrutinib: same dose of 20 mg/kg, FIG. 2
Description: Test Example 7: TMD8 Pharmacodynamic Model Test
Human diffuse large B-cell lymphoma TMD8 cells were monolayer-cultured in vitro in RPMI1640 medium with 10% fetal bovine serum, 100 U/mL penicillin and 100 µg/mL streptomycin, in a 37° C., 5% CO2 incubator. Routine digestion with trypsin-EDTA was performed twice a week for passaging. When the cell density was 80%-90% and the number reached the requirement, cells were harvested, counted and inoculated. 0.2 ml (1×10^7 cells) of TMD8 cells (added with matrigel at a volume ratio of 1:1) were subcutaneously inoculated on the right back of each mouse. The mice were administered in groups when the average tumor volume reached about 137 mm^3. Tumor diameters were measured twice a week with vernier calipers. The tumor volume was calculated by the formula V = 0.5 a × b^2, where a and b represent the long and short diameters of the tumor, respectively.

[6] = system: DOHH-2-luc tumor cells in the mouse brain; assay: DOHH-2-Luc intracerebral tumor drug efficacy model test; format: in vivo; details: for inhibitory effect against the tumor compared with Tirabrutinib: DOHH2 tumor model in the mouse brain, same dose of 30 mg/kg (BID), FIG. 3; for tumor size in the brain by fluorescence image: DOHH-2-Luc intracerebral model, same dose, FIG. 4; for side effects: mouse, 30 mg/kg (BID), after 21 days of administration
Description: Test Example 8: DOHH-2-Luc Intracerebral Tumor Drug Efficacy Model Test
DOHH-2-luc tumor cells were cultured in vitro with RPMI 1640 medium containing 10% fetal bovine serum and 500 ng/mL puromycin in a 37° C., 5% CO2 incubator. […] Tumor cells in logarithmic growth phase were used for inoculation of tumors in vivo.
2. Inoculation of Tumor Cell and Grouping
After the animal was anesthetized by intramuscular injection of Zoletil, it was fixed on the operating table in a prone position. The skin on the top of the head was disinfected with iodine and 75% alcohol respectively, and the skin was cut about 0.5 cm along the midline of the head to expose the coronal and sagittal lines. Being located about 0.5-1.0 mm above the coronal line and about 2 mm to the right of the sagittal line by using a brain locator, a hole was drilled with a 1 mL syringe needle. The micro-injector was inserted vertically to a depth of 3 mm at the location, slowly (about 1 min) injected with 3 × 10^5 DOHH-2-luc tumor cells /2 µL suspension and kept for 1 min. After pulling out the needle, the needle hole was quickly sealed with bone wax, and the wound was sutured with a stapler. About the 7th day after tumor inoculation, the animals were randomly divided into 5 groups according to the body weight of the animals and the optical signal intensity of the tumor site, with 5 animals in each group.
The mice were imaged 1-2 times a week according to their state using the small animal in vivo imaging system IVIS Lumina III (Perkin Elmer). The bioluminescence imaging (BLI, unit: photons/s) signal intensity at the tumor cell inoculation site of mouse was monitored as the main indicator for evaluating tumor growth and drug efficacy. The specific operation is as follows:
The mice were intraperitoneally injected with D-luciferin (15 mg/mL, 5 µL/g according to the body weight of the experimental animal), and then inhaled anesthetized with 1%-2% isoflurane. 10 min after the injection of D-luciferin, the animals were imaged with IVIS Lumina III. The data were analyzed and processed using Living Image software (Perkin Elmer), and the optical signal intensity in ROI (regions of interest) of each animal was calculated.

Chain of BTK wild-type kinase (Q06187 whole entry): as the sequence (Q06187 whole entry C481S) above, with S481C counted along it

Compound	IC50 (BTK wild-type kinase) [nM]	IC50 [1] [nM]	%Remaining (60 min) [2] [%]	Cl [3] [mL/h/kg]	%Remaining (60 min) [4] [%]	IC50 (TMD8 cell proliferation) [nM]	inhibitory effect against the tumor compared with ARQ-531 and ibrutinib [5]	half-life ([2]; 0.5 mg/mL protein) [min]	AUC(0-inf) ([3]; rat) [ng·h/mL]	Cmax ([3]; rat, read-out: Cmax) [ng/mL]	half-life ([3]; rat) [min]	half-life ([4]; 0.5 mg/mL protein) [min]	inhibitory effect against the tumor compared with Tirabrutinib [6]	tumor size in the brain by fluorescence image [6]	side effects [6]	inhibitory effect against the tumor compared with Tirabrutinib [5]	other results
Nc1nccn2c([C@@H]3CC[C@H](CO)OC3)nc(-c3ccc(C(=O)Nc4ccccn4)cc3)c12 (single isomer, unassigned) [Compound 2-A-P1]	< 5	< 5	122.5	131	95.5	61.9											CLint [2]: <9.6 µL/min/mg; T½ ([2]; 0.5 mg/mL protein): >145 min; AUC(0-∞) [3]: 77004 ng·h/mL; Cmax [3]: 25188 ng/mL; T½ [3]: 2.21 h; CLint [4]: <9.6 µL/min/mg; T½ ([4]; 0.5 mg/mL protein): >145 min
COc1cccc(Oc2ccc(-c3nc(C4CCC(CO)OC4)n4ccnc(N)c34)cc2)c1C#N (single isomer, unassigned) [Compound 89-P1]	< 5	< 5	100.4	1232	61.0		significantly better inhibitory effect against the tumor	> 145	8120	2980	69.6	88.4					
Nc1nccn2c(C3CCC(CO)OC3)nc(-c3ccc(C(F)(F)c4ccccc4)cc3)c12 (single isomer, unassigned) [Compound 111-P1]	< 5	< 5				71.9							significantly better inhibitory effect against the tumor	very good inhibitory effect against the tumor	no side effects	significantly better inhibitory effect against the tumor	TGI (tumor inhibition rate) ([5]; 20 mg/kg): 93%; TGI relative to that of Tirabrutinib ([5]; 20 mg/kg): ~2 times
Nc1nccn2c(C34CCC(CO)(CC3)OC4)nc(-c3ccc(C(=O)Nc4cc(C(F)(F)F)ccn4)cc3)c12 [Compound 118]	< 5	< 5	77.4	48	64.1		significantly better inhibitory effect against the tumor	> 145	211000	25700	201	101					
Nc1nccn2c(C34CCC(CO)(CC3)OC4)nc(-c3ccc(C(F)(F)c4ccccc4)cc3)c12 [Compound 125]	5 to 20	< 5	61.2	1045	49			95	8860	1180	251	63.8	significantly better inhibitory effect against the tumor	very good inhibitory effect against the tumor	no side effects	significantly better inhibitory effect against the tumor	
